In test [1] the target is T1, full length human IRAK4 protein (Homo sapiens, UniProt Q9NWZ3).
T1 construct: Purified full length human IRAK4 protein; purchased Signal Chem I12-10G-125
T1 sequence (Q9NWZ3 1-460): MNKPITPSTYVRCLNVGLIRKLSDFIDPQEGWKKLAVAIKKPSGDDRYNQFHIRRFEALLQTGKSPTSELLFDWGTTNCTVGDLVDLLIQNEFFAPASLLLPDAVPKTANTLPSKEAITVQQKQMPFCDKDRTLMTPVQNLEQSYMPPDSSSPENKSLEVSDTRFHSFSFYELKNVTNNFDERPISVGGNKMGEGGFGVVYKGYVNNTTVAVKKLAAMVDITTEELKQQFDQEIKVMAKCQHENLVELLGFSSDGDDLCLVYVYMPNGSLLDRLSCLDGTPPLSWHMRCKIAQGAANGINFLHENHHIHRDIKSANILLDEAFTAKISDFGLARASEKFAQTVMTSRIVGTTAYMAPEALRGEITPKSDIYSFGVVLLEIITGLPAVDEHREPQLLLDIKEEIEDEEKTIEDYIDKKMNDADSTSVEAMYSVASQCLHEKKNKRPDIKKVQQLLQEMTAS
The test is described as follows: IRAK4 Biochemical Assay (Promega ADP-Glo IRAK4 Kinase Enzyme System). Particulars: 3 nM enzyme, 250 μM ATP; for IC50: 2 μM MBP, 60 min at room temperature; for IRAK4 Biochemical Assay Max Inhibition (%): maximum inhibition. The method, then:
For the routine compound screening, an IRAK4 kinase assay was performed as follows using Promega ADP-Glo IRAK4 Kinase Enzyme System (Promega, Cat #2198-AD). Purified full length human IRAK4 protein (Signal Chem; Cat #I12-10G-125) was diluted to a concentration 6 nM in assay buffer (25 mM MOPS, pH 7.2, 12.5 mM β-glycerol-phosphate, 25 mM MgCl2, 5 mM EGTA, 2 mM EDTA, 0.0025% Brij-35, add 0.25 mM DTT to Kinase Assay Buffer prior to use) containing IRAK4 inhibitor at 2× the final concentration in 0.4% DMSO. The reaction was performed in PerkinElmer Proxiplate-384 plus white plate (Fisher Scientific, Cat #50-905-2761) and started by the addition of an equal volume of the assay buffer containing 4 μM native swine myelin basic protein (MBP) and 500 μM ATP to achieve a final concentration of 3 nM enzyme, 2 μM MBP, 250 μM ATP, 1× compound, and 0.2% DMSO. The kinase reaction was allowed to run for 60 min at room temperature (25-27° C.), then 5 μL of ADP-Glo was added to the reaction in each well followed by 40 minutes-incubation at RT. To detect converted […], 10 μL Detection Buffer was added into each well and Incubate at RT in dark for 30 minutes. Finally, luminescence was read using Tecan with 1000 ms of integration time. The luminescent signal positively correlates with ADP amount and kinase activity. Data was analyzed by GraphPad Prism and IC50 was calculated using function log(inhibitor) vs. response—Variable slope (four parameters). Percentage of inhibition was calculated as below:
(§1) % inhibition=(1−(Reading(Sample)−Reading(Negative Control))/(Reading(Positive Control)−Reading(Negative Control)))×100%
The 0% inhibition value comes from the Reading of Positive Control wells having 0 nM compound. The 100% inhibition value comes from the Reading of Negative Control wells having no IRAK4 kinase.
For orientation: In ADP-Glo the light output rises with the ADP produced.

In test [2] the target is T2, IRAK4 (Homo sapiens, UniProt Q9NWZ3).
T2 construct: host or cells: human peripheral blood mononuclear cells (PBMCs)
T2 sequence (Q9NWZ3 1-460): T1 sequence (Q9NWZ3 1-460)
The test is described as follows: IRAK4 Human PBMC TNFα Cell Based Assay (AlphaLISA). Particulars: TNFα measured. The method, then:
In this assay, serially diluted compounds were incubated with 1×10^4 human peripheral blood mononuclear cells (PBMCs) from STEMCELL (Cat #70025.1) per well of 384-well plate (Fisher Scientific; 50-905-2761) and cultured with TexMACS medium (Miltenyi, Cat #130-097-196), stimulated by R848 (0.5 μM) or IL-1β (10 ng/ml). Plates were covered with lids and incubated for 4 h (R848, Fisher Scientific, Cat #NC9801605) or 24 h (IL-1β, Fisher Scientific, Cat #ENRIL1BI) at 37° C. in a humidified tissue-culture incubator. After a brief centrifugation at 1000 rpm for 5 minutes, 5 μl of culture medium was used for the measurement of the TNFα amount using TNFα (human) AlphaLISA Detection Kit (PerkinElmer, Cat #AL208C) according to manufacturer's protocol. A biotinylated anti-TNFα antibody binds to the Streptavidin-coated Donor beads while another anti-TNFα antibody is conjugated to AlphaLISA Acceptor beads. In the presence of the TNFα, the beads come into close proximity. The excitation of the Donor beads causes the release of singlet oxygen molecules that triggers a cascade of energy transfer in the Acceptor beads, resulting in a sharp peak of light emission at 615 nm. AlphaLISA assay plates were read using PHERAstar. Percentage of inhibition was calculated as below:
as §1
The 0% inhibition value comes from the Reading of Positive Control wells having 0 nM compound. The 100% inhibition value comes from the Reading of Negative Control wells having no R848 or IL-1β.
On the technique in general: Alpha assays give light when donor and acceptor beads are brought close together.

Where [3] appears, read: human PBMCs stimulated by IL-1β (10 ng/ml), 24 h, read-out: IRAK4 PBMC AlphaLISA IL-1β (IC50).
The mark [4] stands for this setting: human PBMCs stimulated by R848 (0.5 μM), 4 h, read-out: IRAK4 PBMC AlphaLISA R848 (IC50).

Read-outs that look alike come from different tables or passages of the source.

For orientation: IC50 means the midpoint of a concentration-inhibition curve.

For the molecule `CC[C@@H]1[C@H](F)C(=O)N[C@@H]1COc1ncc(C#Cc2ccccc2)c2cc(C(N)=O)c(OC)cc12` [Example 27, 1-(((2S,3S,4S)-3-ethyl-4-fluoro-5-oxopyrrolidin-2-yl)methoxy)-7-methoxy-4-(phenylethynyl)isoquinoline-6-carboxamide], the results for the IC50 in test [1], in test [2] (setting [3]) and in test [2] (setting [4]) were 24 nM, 1.8 nM and 5.3 nM, respectively. Also, in test [1], the “IRAK4 Biochemical Assay Max Inhibition (%)” value came to 100.0%.
On to `CC[C@@H]1[C@H](F)C(=O)N[C@@H]1COc1ncc(C#Cc2nn[nH]n2)c2cc(C(N)=O)c(OC)cc12` [Example 10, 4-((2H-tetrazol-5-yl)ethynyl)-1-(((2S,3S,4S)-3-ethyl-4-fluoro-5-oxopyrrolidin-2-yl)methoxy)-7-methoxyisoquinoline-6-carboxamide], for which, in test [1], the IC50 amounted to 68 nM and the “IRAK4 Biochemical Assay Max Inhibition (%)” value was found to be 100.0%.
In the case of `CC[C@@H]1[C@H](F)C(=O)N[C@@H]1COc1ccc(C#CC(C)(C)O)c2cc(C(N)=O)c(OC)cc12` [Example 31, 5-(((2S,3S,4S)-3-ethyl-4-fluoro-5-oxopyrrolidin-2-yl)methoxy)-8-(3-hydroxyl-3-methylbut-1-yn-1-yl)-3-methoxy-2-naphthamide], the values for the IC50 in test [1], in test [2] (setting [3]) and in test [2] (setting [4]) were 32 nM, 5.6 nM and 8.3 nM, respectively. In test [1], the “IRAK4 Biochemical Assay Max Inhibition (%)” value was determined as 95.0%.
Consider `CC[C@@H]1[C@H](F)C(=O)N[C@@H]1COc1ncc(C#Cc2cnn(C)c2)c2cc(C(N)=O)c(OC)cc12` [Example 17, 1-(((2S,3S,4S)-3-ethyl-4-fluoro-5-oxopyrrolidin-2-yl)methoxy)-7-methoxy-4-((1-methyl-1H-pyrazol-4-yl)ethynyl)isoquinoline-6-carboxamide], for which the IC50 in test [1] turned out to be 32 nM; in test [2] (setting [3]), 1.5 nM; in test [2] (setting [4]), 2.4 nM. Moreover, in test [1], the “IRAK4 Biochemical Assay Max Inhibition (%)” value is listed as 100.0%.
For the molecule `CC[C@@H]1[C@H](F)C(=O)N[C@@H]1COc1ncc(C#CC(C)(C)C)c2cc(C(N)=O)c(OC)cc12` [Example 32, 4-(3,3-dimethylbut-1-yn-1-yl)-1-(((2S,3S,4S)-3-ethyl-4-fluoro-5-oxopyrrolidin-2-yl)methoxy)-7-methoxyisoquinoline-6-carboxamide], the figures for the IC50 in test [1], in test [2] (setting [3]) and in test [2] (setting [4]) were 45 nM, 17 nM and 11 nM, respectively. In addition, the “IRAK4 Biochemical Assay Max Inhibition (%)” value in test [1] worked out at 99.0%.
Take `CC[C@@H]1[C@H](F)C(=O)N[C@@H]1COc1ncc(C#CC(C)(C)O)c2cc(C(N)=O)c(OC)cc12` [Example 3, 1-(((2S,3S,4S)-3-ethyl-4-fluoro-5-oxopyrrolidin-2-yl)methoxy)-4-(3-hydroxyl-3-methylbut-1-yn-1-yl)-7-methoxyisoquinoline-6-carboxamide]: the IC50 in test [1] worked out at 17 nM; in test [2] (setting [3]) it was 4.7 nM; in test [2] (setting [4]), 2.7 nM. The “IRAK4 Biochemical Assay Max Inhibition (%)” value in test [1] is listed as 100.0%.
For the molecule `CC[C@@H]1[C@H](F)C(=O)N[C@@H]1COc1ncc(C#Cc2cncnc2)c2cc(C(N)=O)c(OC)cc12` [Example 12, 1-(((2S,3S,4S)-3-ethyl-4-fluoro-5-oxopyrrolidin-2-yl)methoxy)-7-methoxy-4-(pyrimidin-5-ylethynyl)isoquinoline-6-carboxamide], the figures for the concentration for half-maximal inhibition (IC50) in test [1], in test [2] (setting [3]) and in test [2] (setting [4]) were 69 nM, 0.8 nM and 1.4 nM, respectively. The “IRAK4 Biochemical Assay Max Inhibition (%)” value in test [1] is given as 100.0%.
Turning to `CC[C@@H]1[C@H](F)C(=O)N[C@@H]1COc1ncc(C#CC(=O)O)c2cc(C(N)=O)c(OC)cc12` [Example 4, 3-(6-carbamoyl-1-(((2S,3S,4S)-3-ethyl-4-fluoro-5-oxopyrrolidin-2-yl)methoxy)-7-methoxyisoquinolin-4-yl)propiolic acid], in test [1], inhibition was half-maximal at 5.7 nM (IC50) and the “IRAK4 Biochemical Assay Max Inhibition (%)” value was found to be 98.0%.
Turning to `COc1cc2c(OC[C@@H]3CCC(=O)N3)ncc(C#Cc3ccc(C)cc3)c2cc1C(N)=O` [Example 7, (S)-7-methoxy-1-((5-oxopyrrolidin-2-yl)methoxy)-4-(p-tolylethynyl)isoquinoline-6-carboxamide], the results for the half-inhibitory concentration (IC50) in test [2] (setting [3]) and in test [2] (setting [4]) were 89 nM and 150 nM, respectively.

(Values after patent US20220177446A1, “ALKYNE COMPOUNDS AS IRAK INHIBITORS, PREPARATION METHODS AND MEDICINAL USES THEREOF” (Eternity Bioscience Inc., priority 2020, published 2022).)
